Values joined by “and” are separate entries in the source; they are usually repeats but may differ in a detail not shown here. Equal entries are not always repeated.
Experiments:
[1] = PAVO Part 3: serum daratumumab concentration, pre-dose Cycle 3 Day 1; format: in vivo, human; settings: Cycle 3 Day 1 pre-dose
[2] = tested on: patients with RRMM; test: PAVO Part 2: DARA SC safety and efficacy
[3] = tested on: patients with RRMM; test: PAVO Part 3: efficacy by IMWG response criteria; format: in vivo, human
Method: The primary endpoint was safety of pre- and post-dose steroid tapering. Key secondary endpoints included the overall response rate (ORR) and the rate of complete response (CR).
For the evaluation of efficacy, responses were assessed according to International Myeloma Working Group (IMWG) consensus recommendations (Durie et al., Leukemia 20(9):1467-73 (2006); Rajkumar et al., Blood 117(18):4691-95 (2011)). Disease evaluations were performed by a central laboratory.
In PAVO Part 3, no formal statistical hypothesis testing was performed. Data were summarized descriptively. Continuous variables were summarized using the number of observations, mean and standard deviation (SD), coefficient of variation, median and range as appropriate. Categorical variables were summarized using the number of observations and percentages as appropriate. Duration of response and PFS were estimated using Kaplan-Meier methods.

[4] = tested on: patients with multiple myeloma; settings: cited from earlier work

## DARA SC: 1,800 mg daratumumab co-formulated with 30,000 U rHuPH20 (2,000 U/mL, 15 mL), manual subcutaneous injection
[1]; 1-week taper
  Mean (SD) daratumumab serum concentration: 706 (270) μg/mL and 706 μg/mL
[1]; 2-week taper
  Mean (SD) daratumumab serum concentration: 731 (382) μg/mL and 731 μg/mL
[1]; 3-week taper
  Mean (SD) daratumumab serum concentration: 604 (280) μg/mL and 604 μg/mL
[1]; total PK-evaluable n=37
  Mean (SD) daratumumab serum concentration: 676 (314) μg/mL
[2]
  Lymphopenia, TEAE of Grade >3: 20.0%
  Serious TEAEs in SOC General disorders and administration site conditions: 8.0%
  TEAEs in SOC General disorders and administration site conditions: 72.0%
[3]; 1-week taper
  9-month duration of response rate: 100%
  Estimated 9-month PFS rate: 46.7%
  Median PFS: 7.4 months
  Median duration of response: not reached
  Median time to best response: 1.0 months
  Patients achieving ≥CR: 1 (8.3%) n (%)
  Patients achieving ≥VGPR: 2 (16.7%) n (%)
  Rate of very good partial response or better: 16.7%
[3]; 1-week taper, median follow-up 8.3 months
  Overall response rate (ORR): 41.7%
[3]; 2-week taper
  9-month duration of response rate: 83.3%
  Estimated 9-month PFS rate: 36.1%
  Median PFS: 4.7 months
  Median duration of response: 16.7 months
  Median time to best response: 1.9 months
  Patients achieving ≥CR: no patient
  Patients achieving ≥VGPR: 5 (33.3%) n (%)
  Rate of very good partial response or better: 33.3%
[3]; 2-week taper, median follow-up 11.1 months
  Overall response rate (ORR): 40.0%
[3]; 3-week taper
  9-month duration of response rate: 83.3%
  Estimated 9-month PFS rate: 40.0%
  Median PFS: 5.9 months
  Median duration of response: not reached
  Median time to best response: 1.5 months
  Patients achieving ≥CR: 1 (6.7%) n (%)
  Patients achieving ≥VGPR: 3 (20.0%) n (%)
  Rate of very good partial response or better: 20.0%
[3]; 3-week taper, median follow-up 9.2 months
  Overall response rate (ORR): 40.0%
[3]; Total n=42
  Patients achieving ≥CR: 2 (4.8% (95% CI: 0.6%, 16.2%)) n (%)
  Patients achieving ≥VGPR: 10 (23.8% (95% CI: 12.1%, 39.5%)) n (%)
[3]; Total n=42, median follow-up 8.3 months
  Overall response rate (ORR): 40.5%
[3]; all treated N=42
  Estimated 9-month PFS rate: 40.7%
  Median PFS: 5.9 months
[3]; responders n=17
  Median time to best response: 1.1 months
  Median time to first response: 1.0 months
[4]; COLUMBA primary analysis
  Median PFS: 5.6 months
[4]; COLUMBA, follow-up 7.5 months
  Median duration of response: not reached
[4]; COLUMBA, median follow-up 7.5 months
  Overall response rate: 41%
